# Results published in patent publication US9790210B2, “N-(monocyclic aryl),N'-pyrazolyl-urea, thiourea, guanidine and cyanoguanidine compounds as TrkA kinase inhibitors” (Array BioPharma Inc., priority 2012, dated 2017).
# Assays:
# Assay in all cases: KinaseProfiler
# Type in all cases: biochemical
# Conditions in all cases: 10 μM, ATP near Km
# [1] = target: T1, BTK (Homo sapiens, UniProt Q06187)
# T1 construct: purchased Millipore (KinaseProfiler service)
# Experimental: (§1) A representative compound (Example 15) of the invention was tested for off-target kinase activity at a concentration of 10 μM by Millipore, Inc. in their KinaseProfiler™ service against all the kinases available in their full kinase panel. The compound was run in duplicate at a concentration of ATP near the Km for each individual kinase according to Millipore's specifications. The results are shown in Table B. Data are reported as percent of control (POC) and are the average of the two replicates.
# [2] = target: T2, Fer (Homo sapiens, UniProt P16591)
# T2 construct: purchased Millipore, Inc. (KinaseProfiler service)
# Experimental: as §1
# [3] = target: T3, KDR (Homo sapiens, UniProt P35968)
# T3 construct: purchased Millipore, Inc. (KinaseProfiler service)
# Experimental: as §1
# [4] = target: T4, IKKalpha (Homo sapiens, UniProt O15111)
# T4 construct: purchased Millipore, Inc. (KinaseProfiler service)
# Experimental: as §1
# [5] = target: T5, EGFR (Homo sapiens, UniProt P00533)
# T5 construct: purchased Millipore, Inc. (KinaseProfiler service)
# Experimental: as §1
# [6] = target: T6, BrSK1 (Homo sapiens, UniProt Q8TDC3)
# T6 construct: purchased Millipore (KinaseProfiler service)
# Experimental: as §1
# [7] = target: T7, p38beta (Homo sapiens, UniProt Q15759)
# T7 construct: purchased Millipore, Inc. (KinaseProfiler service)
# Experimental: as §1
# [8] = target: T8, DMPK (Homo sapiens, UniProt Q09013)
# T8 construct: purchased Millipore, Inc. (KinaseProfiler service)
# Experimental: as §1
# [9] = target: T9, PDGFRbeta (Homo sapiens, UniProt P09619)
# T9 construct: purchased Millipore, Inc. (KinaseProfiler service)
# Experimental: as §1
# [10] = target: T10, PKCgamma (Homo sapiens, UniProt P05129)
# T10 construct: purchased Millipore, Inc. (KinaseProfiler service)
# Experimental: as §1
# [11] = target: T11, MEK1 (Homo sapiens, UniProt Q02750)
# T11 construct: purchased Millipore, Inc. (KinaseProfiler service)
# Experimental: as §1
# [12] = target: T12, c-RAF (Homo sapiens, UniProt P04049, Y340D/Y341D)
# T12 construct: purchased Millipore, Inc. (KinaseProfiler service)
# Experimental: as §1
# [13] = target: T13, CAMK2g (Homo sapiens, UniProt Q13555)
# T13 construct: purchased Millipore (KinaseProfiler service)
# Experimental: as §1
# [14] = target: T14, EphA7 (Homo sapiens, UniProt Q15375)
# T14 construct: purchased Millipore, Inc. (KinaseProfiler service)
# Experimental: as §1
# [15] = target: T15, PrKX (Homo sapiens, UniProt P51817)
# T15 construct: purchased Millipore, Inc. (KinaseProfiler service)
# Experimental: as §1
# [16] = target: T16, TEC Activated (Homo sapiens, UniProt P42680)
# T16 construct: purchased Millipore, Inc. (KinaseProfiler service)
# Experimental: as §1
# [17] = target: T17, AKT3 (Homo sapiens, UniProt Q9Y243)
# T17 construct: purchased Millipore (KinaseProfiler service)
# Experimental: as §1
# [18] = target: T18, CLK2 (Homo sapiens, UniProt P49760)
# T18 construct: purchased Millipore, Inc. (KinaseProfiler service)
# Experimental: as §1
# [19] = target: T19, CK1gamma2 (Homo sapiens, UniProt P78368)
# T19 construct: purchased Millipore, Inc. (KinaseProfiler service)
# Experimental: as §1
# [20] = target: T20, PTK6 (Homo sapiens, UniProt Q13882)
# T20 construct: purchased Millipore, Inc. (KinaseProfiler service)
# Experimental: as §1
# [21] = target: T21, NEK2 (Homo sapiens, UniProt P51955)
# T21 construct: purchased Millipore, Inc. (KinaseProfiler service)
# Experimental: as §1
# [22] = target: T22, TAO2 (Homo sapiens, UniProt Q9UL54)
# T22 construct: purchased Millipore, Inc. (KinaseProfiler service)
# Experimental: as §1
# [23] = target: T23, MSSK1 (Homo sapiens, UniProt Q9UPE1)
# T23 construct: purchased Millipore, Inc. (KinaseProfiler service)
# Experimental: as §1
# [24] = target: T24, EphA8 (Homo sapiens, UniProt P29322)
# T24 construct: purchased Millipore, Inc. (KinaseProfiler service)
# Experimental: as §1
# [25] = target: T25, CAMK2d (Homo sapiens, UniProt Q13557)
# T25 construct: purchased Millipore (KinaseProfiler service)
# Experimental: as §1
# [26] = target: T26, TAO1 (Homo sapiens, UniProt Q7L7X3)
# T26 construct: purchased Millipore, Inc. (KinaseProfiler service)
# Experimental: as §1
# [27] = target: T27, ITK (Homo sapiens, UniProt Q08881)
# T27 construct: purchased Millipore, Inc. (KinaseProfiler service)
# Experimental: as §1
# [28] = target: T28, CAMK1 (Homo sapiens, UniProt Q14012)
# T28 construct: purchased Millipore (KinaseProfiler service)
# Experimental: as §1
# [29] = target: T29, CSK (Homo sapiens, UniProt P41240)
# T29 construct: purchased Millipore, Inc. (KinaseProfiler service)
# Experimental: as §1
# [30] = target: T30, HIPK2 (Homo sapiens, UniProt Q9H2X6)
# T30 construct: purchased Millipore, Inc. (KinaseProfiler service)
# Experimental: as §1
# [31] = target: T31, TrkB (Homo sapiens, UniProt Q16620)
# T31 construct: purchased Millipore, Inc. (KinaseProfiler service)
# Experimental: as §1
# [32] = target: T32, MSK2 (Homo sapiens, UniProt O75676)
# T32 construct: purchased Millipore, Inc. (KinaseProfiler service)
# Experimental: as §1
# [33] = target: T33, MAP3K5 (Homo sapiens, UniProt Q99683)
# T33 construct: purchased Millipore, Inc. (KinaseProfiler service)
# Experimental: as §1
# [34] = target: T34, MAPKAP-K5 (Homo sapiens, UniProt Q8IW41)
# T34 construct: purchased Millipore, Inc. (KinaseProfiler service)
# Experimental: as §1
# [35] = target: T35, TSSK1 (Homo sapiens, UniProt Q9BXA7)
# T35 construct: purchased Millipore, Inc. (KinaseProfiler service)
# Experimental: as §1
# [36] = target: T36, MAPKAP-K2 (Homo sapiens, UniProt P49137)
# T36 construct: purchased Millipore, Inc. (KinaseProfiler service)
# Experimental: as §1
# [37] = target: T37, TLK2 (Homo sapiens, UniProt Q86UE8)
# T37 construct: purchased Millipore, Inc. (KinaseProfiler service)
# Experimental: as §1
# [38] = target: T38, SRPK2 (Homo sapiens, UniProt P78362)
# T38 construct: purchased Millipore, Inc. (KinaseProfiler service)
# Experimental: as §1
# [39] = target: T39, HIPK1 (Homo sapiens, UniProt Q86Z02)
# T39 construct: purchased Millipore, Inc. (KinaseProfiler service)
# Experimental: as §1
# [40] = target: T40, PKD1 (Homo sapiens, UniProt Q15139)
# T40 construct: purchased Millipore, Inc. (KinaseProfiler service)
# Experimental: as §1
# T13 sequence (Q13555 whole entry): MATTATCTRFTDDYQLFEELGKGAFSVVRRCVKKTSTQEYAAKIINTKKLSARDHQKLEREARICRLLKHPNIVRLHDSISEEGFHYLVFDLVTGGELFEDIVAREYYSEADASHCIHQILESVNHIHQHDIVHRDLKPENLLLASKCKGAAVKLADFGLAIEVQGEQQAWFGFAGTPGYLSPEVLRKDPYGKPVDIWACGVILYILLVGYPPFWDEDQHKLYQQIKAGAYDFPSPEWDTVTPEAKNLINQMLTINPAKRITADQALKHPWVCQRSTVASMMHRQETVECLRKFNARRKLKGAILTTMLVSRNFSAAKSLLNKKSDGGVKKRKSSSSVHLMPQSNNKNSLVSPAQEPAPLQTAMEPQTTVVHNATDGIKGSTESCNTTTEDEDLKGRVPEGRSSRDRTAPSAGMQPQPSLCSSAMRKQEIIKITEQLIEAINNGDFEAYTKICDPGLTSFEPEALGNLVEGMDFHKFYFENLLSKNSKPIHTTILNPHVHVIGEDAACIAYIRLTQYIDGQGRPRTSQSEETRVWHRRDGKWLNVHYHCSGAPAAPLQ
# T30 sequence (Q9H2X6 whole entry): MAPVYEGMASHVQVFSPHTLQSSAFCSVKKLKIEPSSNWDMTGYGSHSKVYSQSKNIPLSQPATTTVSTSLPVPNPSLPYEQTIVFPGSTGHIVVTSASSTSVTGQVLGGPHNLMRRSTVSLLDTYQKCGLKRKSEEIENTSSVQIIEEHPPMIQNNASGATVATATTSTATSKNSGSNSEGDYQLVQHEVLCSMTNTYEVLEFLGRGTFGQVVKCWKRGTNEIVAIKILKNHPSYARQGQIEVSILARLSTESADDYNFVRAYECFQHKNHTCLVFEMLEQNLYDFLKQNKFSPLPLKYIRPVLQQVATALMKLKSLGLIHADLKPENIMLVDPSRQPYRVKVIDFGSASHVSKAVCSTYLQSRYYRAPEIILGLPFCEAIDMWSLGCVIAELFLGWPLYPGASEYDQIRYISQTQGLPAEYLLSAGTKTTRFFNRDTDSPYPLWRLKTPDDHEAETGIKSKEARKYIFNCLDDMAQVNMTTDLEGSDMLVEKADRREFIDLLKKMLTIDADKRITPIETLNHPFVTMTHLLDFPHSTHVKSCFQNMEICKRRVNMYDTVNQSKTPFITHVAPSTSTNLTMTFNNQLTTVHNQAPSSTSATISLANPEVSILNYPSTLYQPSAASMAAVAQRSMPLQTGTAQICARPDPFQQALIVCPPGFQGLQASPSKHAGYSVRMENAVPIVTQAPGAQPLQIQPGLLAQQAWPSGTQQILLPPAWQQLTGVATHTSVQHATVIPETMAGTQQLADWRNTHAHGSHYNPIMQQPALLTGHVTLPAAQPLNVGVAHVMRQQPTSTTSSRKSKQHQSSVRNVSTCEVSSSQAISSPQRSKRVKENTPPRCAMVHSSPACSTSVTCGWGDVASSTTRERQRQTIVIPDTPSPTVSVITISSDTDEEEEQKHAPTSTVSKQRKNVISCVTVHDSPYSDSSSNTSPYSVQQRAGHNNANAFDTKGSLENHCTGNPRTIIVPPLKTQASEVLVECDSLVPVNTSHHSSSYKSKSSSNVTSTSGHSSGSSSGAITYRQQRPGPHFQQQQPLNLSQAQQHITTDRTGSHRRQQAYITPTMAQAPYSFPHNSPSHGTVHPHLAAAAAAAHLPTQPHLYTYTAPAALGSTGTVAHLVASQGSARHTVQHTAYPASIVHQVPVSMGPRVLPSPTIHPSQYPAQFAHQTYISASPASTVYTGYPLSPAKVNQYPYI
# T31 sequence (Q16620 32-822): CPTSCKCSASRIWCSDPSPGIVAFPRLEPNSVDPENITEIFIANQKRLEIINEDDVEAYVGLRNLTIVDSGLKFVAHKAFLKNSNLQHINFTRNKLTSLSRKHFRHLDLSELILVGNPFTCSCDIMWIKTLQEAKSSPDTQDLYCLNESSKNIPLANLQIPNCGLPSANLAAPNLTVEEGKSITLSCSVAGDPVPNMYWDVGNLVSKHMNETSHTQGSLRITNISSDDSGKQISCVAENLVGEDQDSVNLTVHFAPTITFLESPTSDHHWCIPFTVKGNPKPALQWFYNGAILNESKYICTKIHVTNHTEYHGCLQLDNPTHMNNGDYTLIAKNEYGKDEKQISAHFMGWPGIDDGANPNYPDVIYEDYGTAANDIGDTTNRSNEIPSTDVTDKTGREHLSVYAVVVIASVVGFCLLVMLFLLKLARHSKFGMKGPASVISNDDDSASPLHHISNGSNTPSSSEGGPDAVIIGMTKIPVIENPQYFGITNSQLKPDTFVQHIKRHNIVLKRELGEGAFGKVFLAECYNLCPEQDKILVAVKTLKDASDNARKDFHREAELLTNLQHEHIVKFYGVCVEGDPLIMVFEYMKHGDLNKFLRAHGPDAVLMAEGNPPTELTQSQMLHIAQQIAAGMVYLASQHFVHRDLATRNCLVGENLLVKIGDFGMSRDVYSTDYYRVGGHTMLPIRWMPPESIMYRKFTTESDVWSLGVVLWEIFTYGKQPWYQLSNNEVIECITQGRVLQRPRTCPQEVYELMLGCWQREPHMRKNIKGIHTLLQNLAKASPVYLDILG
# T17 sequence (Q9Y243 whole entry): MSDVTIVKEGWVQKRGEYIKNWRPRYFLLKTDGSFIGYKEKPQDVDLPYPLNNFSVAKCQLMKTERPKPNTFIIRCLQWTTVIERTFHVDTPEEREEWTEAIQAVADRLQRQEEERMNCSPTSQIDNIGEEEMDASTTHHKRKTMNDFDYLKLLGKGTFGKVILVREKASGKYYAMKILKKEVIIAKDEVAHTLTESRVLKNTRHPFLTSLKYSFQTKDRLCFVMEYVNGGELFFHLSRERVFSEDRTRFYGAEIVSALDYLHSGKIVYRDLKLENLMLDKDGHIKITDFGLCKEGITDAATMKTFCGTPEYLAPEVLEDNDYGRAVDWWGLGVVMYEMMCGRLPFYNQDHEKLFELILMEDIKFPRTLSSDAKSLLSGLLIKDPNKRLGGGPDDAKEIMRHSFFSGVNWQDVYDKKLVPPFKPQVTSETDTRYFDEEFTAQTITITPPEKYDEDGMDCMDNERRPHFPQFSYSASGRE
# T21 sequence (P51955 whole entry): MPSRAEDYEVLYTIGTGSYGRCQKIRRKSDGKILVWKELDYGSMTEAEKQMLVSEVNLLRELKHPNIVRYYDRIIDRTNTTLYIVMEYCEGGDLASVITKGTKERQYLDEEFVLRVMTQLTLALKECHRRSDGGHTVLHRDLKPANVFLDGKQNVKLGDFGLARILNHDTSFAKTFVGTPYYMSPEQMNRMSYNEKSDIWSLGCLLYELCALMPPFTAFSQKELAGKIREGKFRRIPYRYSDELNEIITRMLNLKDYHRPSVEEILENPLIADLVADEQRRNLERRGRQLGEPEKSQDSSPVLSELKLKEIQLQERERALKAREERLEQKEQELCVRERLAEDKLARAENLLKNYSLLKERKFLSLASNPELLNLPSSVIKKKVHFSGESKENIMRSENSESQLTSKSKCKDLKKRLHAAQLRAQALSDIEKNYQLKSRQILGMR
# T19 sequence (P78368 whole entry): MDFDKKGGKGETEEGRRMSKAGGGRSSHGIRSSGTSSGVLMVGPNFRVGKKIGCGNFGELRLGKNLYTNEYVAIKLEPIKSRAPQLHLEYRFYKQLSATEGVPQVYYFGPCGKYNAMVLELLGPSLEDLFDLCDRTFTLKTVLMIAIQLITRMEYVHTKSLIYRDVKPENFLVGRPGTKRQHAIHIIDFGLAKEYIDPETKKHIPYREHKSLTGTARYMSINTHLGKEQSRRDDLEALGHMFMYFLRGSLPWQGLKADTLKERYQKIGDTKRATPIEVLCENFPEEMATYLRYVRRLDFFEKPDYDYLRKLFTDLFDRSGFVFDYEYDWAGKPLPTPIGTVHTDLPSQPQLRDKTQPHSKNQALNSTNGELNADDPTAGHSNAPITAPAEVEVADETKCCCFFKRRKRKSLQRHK
# T20 sequence (Q13882 whole entry): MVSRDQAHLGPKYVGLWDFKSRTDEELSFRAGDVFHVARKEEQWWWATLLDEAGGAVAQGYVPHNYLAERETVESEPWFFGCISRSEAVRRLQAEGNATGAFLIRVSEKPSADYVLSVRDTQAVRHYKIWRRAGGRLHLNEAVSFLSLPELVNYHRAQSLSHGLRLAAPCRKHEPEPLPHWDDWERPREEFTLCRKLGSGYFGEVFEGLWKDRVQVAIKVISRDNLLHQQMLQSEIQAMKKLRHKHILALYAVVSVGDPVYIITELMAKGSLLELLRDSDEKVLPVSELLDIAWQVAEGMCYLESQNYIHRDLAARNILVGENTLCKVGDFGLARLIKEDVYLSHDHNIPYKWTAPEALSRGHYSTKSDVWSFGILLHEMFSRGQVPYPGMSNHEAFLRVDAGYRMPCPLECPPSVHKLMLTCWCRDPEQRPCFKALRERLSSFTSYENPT
# T18 sequence (P49760 whole entry): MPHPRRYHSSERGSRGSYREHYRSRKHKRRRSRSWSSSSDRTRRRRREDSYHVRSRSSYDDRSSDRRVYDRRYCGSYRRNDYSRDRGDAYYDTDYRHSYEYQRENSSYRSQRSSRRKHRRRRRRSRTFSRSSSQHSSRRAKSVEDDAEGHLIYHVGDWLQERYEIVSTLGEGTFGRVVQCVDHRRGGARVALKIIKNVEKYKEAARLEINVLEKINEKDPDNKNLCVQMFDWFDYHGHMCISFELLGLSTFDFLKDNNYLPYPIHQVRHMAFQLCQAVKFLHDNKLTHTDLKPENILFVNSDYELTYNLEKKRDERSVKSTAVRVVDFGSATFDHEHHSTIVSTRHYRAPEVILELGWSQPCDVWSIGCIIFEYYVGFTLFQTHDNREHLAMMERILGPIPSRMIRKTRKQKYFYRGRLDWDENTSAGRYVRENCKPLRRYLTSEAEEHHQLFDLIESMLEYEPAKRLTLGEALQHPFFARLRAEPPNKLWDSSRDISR
smiles,measurement,setting,value
"COCCCc1cc(Cl)c(Cl)cc1NC(=O)Nc1c(C)c(-c2cnn(C)c2)nn1-c1ccccc1 [Example 15, 1-(4,5-dichloro-2-(3-methoxypropyl)phenyl)-3-(1′,4-dimethyl-1-phenyl-1H,1′H-[3,4′-bipyrazol]-5-yl)urea]",Avg POC,[1],119.5 POC
same,Avg POC,[2],99 POC
same,Avg POC,[3],136 POC
same,Avg POC,[4],128 POC
same,Avg POC,[5],103 POC
same,Avg POC,[6],123.5 POC
same,Avg POC,[7],106.5 POC
same,Avg POC,[8],108.5 POC
same,Avg POC,[9],134 POC
same,Avg POC,[10],99.5 POC
same,Avg POC,[11],121.5 POC
same,Avg POC,[12],98.5 POC
same,Avg POC,[13],103 POC
same,Avg POC,[14],103 POC
same,Avg POC,[15],134 POC
same,Avg POC,[16],101.5 POC
same,Avg POC,[17],119.5 POC
same,Avg POC,[18],111.5 POC
same,Avg POC,[19],120 POC
same,Avg POC,[20],124 POC
same,Avg POC,[21],88.5 POC
same,Avg POC,[22],126 POC
same,Avg POC,[23],122 POC
same,Avg POC,[24],127.5 POC
same,Avg POC,[25],135.5 POC
same,Avg POC,[26],113 POC
same,Avg POC,[27],125 POC
same,Avg POC,[28],96 POC
same,Avg POC,[29],139 POC
same,Avg POC,[30],99.5 POC
same,Avg POC,[31],105 POC
same,Avg POC,[32],147 POC
same,Avg POC,[33],105 POC
same,Avg POC,[34],92 POC
same,Avg POC,[35],80 POC
same,Avg POC,[36],129.5 POC
same,Avg POC,[37],101 POC
same,Avg POC,[38],113.5 POC
same,Avg POC,[39],118 POC
same,Avg POC,[40],113.5 POC
